Measured values published in patent publication US20120309734A1, “COMBRETASTATIN DERIVATIVES AND USES THEREFOR” (priority 2009, published 2012).

Legend:
[1] = test system: MCF-7 breast cancer cell line; assay: Antiproliferation study, MTT cell viability assay; assay type: cell-based; settings: Homo sapiens, MCF7, 72 h, antiproliferative activity, MTT, 72 h; read-out: IC50 (μM) MCF-7 cell line
Description: All assays were performed in triplicate for the determination of mean values reported. Compounds were assayed as the free bases isolated from reaction. The human breast tumour cell line MCF-7 was cultured in Eagles minimum essential medium in a […] atmosphere with 10% fetal bovine serum, 2 mM L-glutamine and 100 μg/mL penicillin/streptomycin. The medium was supplemented with 1% non-essential amino acids. MDA-MB-231 cells were maintained in Dulbecco's Modified Eagle's medium (DMEM), supplemented with 10% (v/v) Fetal bovine serum, 2 mM L-glutamine and 100 μg/mL penicillin/streptomycin (complete medium). Cells were trypsinised and seeded at a density of 2.5×10^4 cells/ml in a 96-well plate and incubated at 37° C., […] atmosphere for 24 h. […] Control wells contained the equivalent volume of the vehicle ethanol (1% v/v). The culture medium was then removed and the cells washed with 100 μL phosphate buffered saline (PBS) and 50 μL MTT added, to reach a final concentration of 1 mg/mL MTT added. Cells were incubated for 2 h in darkness at 37° C. At this point solubilization was begun through the addition of 200 μL DMSO and the cells maintained at room temperature in darkness for 20 min to ensure thorough colour diffusion before reading the absorbance. The absorbance value of control cells (no added compound) was set to 100% cell viability and from this graphs of absorbance versus cell density per well were prepared to assess cell viability and from these, graphs of percentage cell viability versus concentration of subject compound added were drawn.

[2] = test system: A2780-parental; assay: Alamar Blue cell viability assay; assay type: cell-based; settings: 72 h
Description: (§1) Cells were exposed to multiple concentrations of the indicated compound for 72 h. Cell viability was assessed using the Alamar blue assay and respective IC50 values were calculated. The resistance factor (RF) was calculated by dividing the IC50 of the resistant cell line/IC50 of the parental cell line.
(§2) A2780-parental and A2780-ADR resistant cells were provided by the Beatson Institute of Cancer Research, Glasgow. […] All cells were cultured in RPMI-1640 Glutamax medium supplemented with 10% FCS media, 100 units/ml penicillin and 100 μg/mIstreptomycin. Cells were maintained at 37° C. in 5% CO2 in a humidified incubator.
(§3) The reduction of Alamar Blue is proportional to the number of viable cells. Cells (200 μl) were plated in triplicate in a 96-well plates (K562, 100,000/ml; HL-60, 300,000/ml; A-2780 50,000/ml). A-2780 cells were plated 24 h prior to treatment. Suspension cells were plated in the log phase of growth and treated immediately. The cells were then treated with either medium alone, vehicle (1% ethanol v/v or 0.1% DMSO v/v) or with a range of concentrations of drug [0.001-10 μM]. After 72 h, Alamar Blue was added to each well (10% of final volume) and fluorescence was read using a 96-well fluorometer with excitation at 530 nm and emission of 590 nm. The blank solution consisted of medium and Alamar Blue and the blank solution was used to calibrate the spectrophotometer to zero absorbance. The relative cell viability (%) related to control wells and was calculated by [A]test/[A]control×100 where [A]test is the absorbance of the drug treated cells and [A]control the absorbance of the vehicle control treated cells. Dose response curves were plotted and IC50 values (concentration of drug resulting in 50% reduction in cell survival) were obtained using the commercial software package Prism (GraphPad Software, Inc., La Jolla, USA). Experiments were performed in triplicate on at least three separate occasions.

[3] = test system: A2780-ADR (PGP); assay: Alamar Blue cell viability assay; settings: for IC50: A2780 ADR, 72 h; for RF: IC50 A2780-ADR (PGP) / IC50 A2780-parental
Description: (§4) Three drug resistant cell lines and respective parental cell lines were assessed. […] Western blot analysis confirmed the overexpression of p-glycoprotein and BCRP in respective cell lines.
as §1
(§5) All cells were cultured in RPMI-1640 Glutamax medium supplemented with 10% FCS media, 100 units/ml penicillin and 100 μg/mIstreptomycin. Cells were maintained at 37° C. in 5% CO2 in a humidified incubator.
as §3

[4] = test system: HL-60-MDR(PGP); assay: Alamar Blue cell viability assay; assay type: cell-based, human; settings: for IC50: Homo sapiens, HL60/MDR, HL-60-MDR(PGP), 72 h, Alamar blue, read-out: IC50; for RF: IC50 HL-60-MDR(PGP) / IC50 HL-60 parental
Description: as §4, §1, §5, §3

[5] = test system: HL-60 parental; assay: Alamar Blue cell viability assay; assay type: cell-based; settings: Homo sapiens, 72 h
Description: as §1, §2, §3

[6] = Stability by HPLC at three pH values; assay type: physicochemical
Description: The stability of β-lactam compounds 4, 8 and 12 was assessed by HPLC at three different pH values. […] The half-lives of 8 and 12 were both greater than 24 hours at all pH values. The stability of three ester prodrug derivatives of 4, i.e. 29, 30 and 31, was also assessed (FIG. 6).

## COc1ccc(C2C(c3ccc(N)cc3)C(=O)N2c2cc(OC)c(OC)c(OC)c2)cc1O (centres unmarked) [Compound 23, 3-(4-Amino-phenyl)-4-(3-hydroxy-4-methoxy-phenyl)-1-(3,4,5-trimethoxy-phenyl)-azetidin-2-one]
[1]
  IC50: 0.004 µM

## COc1ccc(C2C(c3ccc(N)cc3)C(=O)N2c2cc(OC)c(OC)c(OC)c2)cc1N (centres unmarked) [Compound 24, 4-(3-Amino-4-methoxy-phenyl)-3-(4-amino-phenyl)-1-(3,4,5-trimethoxy-phenyl)-azetidin-2-one]
[1]
  IC50: 0.03 µM

## COc1cccc2c1C(=O)c1c(O)c3c(c(O)c1C2=O)C[C@@](O)(C(=O)CO)C[C@@H]3O[C@H]1C[C@H](N)[C@H](O)[C@H](C)O1 [Adriamycin, adriamycin]
[2]
  IC50: 42.8 nM
[3]
  IC50: 5100 nM
  RF: 119.2

## CC(=O)O[C@H]1C(=O)[C@@]2(C)[C@H]([C@H](OC(=O)c3ccccc3)[C@]3(O)C[C@H](OC(=O)[C@H](O)[C@@H](NC(=O)c4ccccc4)c4ccccc4)C(C)=C1C3(C)C)[C@]1(OC(C)=O)CO[C@@H]1C[C@@H]2O [Paclitaxel, paclitaxel]
[2]
  IC50: 4.2 nM
[4]
  IC50: > 10000 nM
  RF: >2,083
[5]
  IC50: 4.8 nM
[3]
  IC50: > 10000 nM
  RF: >2,381

## COc1ccc(C2C(c3cccs3)C(=O)N2c2cc(OC)c(OC)c(OC)c2)cc1N (centres unmarked) [Compound 19, 4-(3-Amino-4-methoxy-phenyl)-3-thiophen-2-yl-1-(3,4,5-trimethoxy-phenyl)-azetidin-2-one]
[1]
  IC50: 0.041 µM

## COc1ccc(C2C(C(O)C=Cc3ccccc3)C(=O)N2c2cc(OC)c(OC)c(OC)c2)cc1O (centres unmarked) [Compound 7, 4-(3-Hydroxy-4-methoxy-phenyl)-3-(1-hydroxy-3-phenyl-allyl)-1-(3,4,5-trimethoxy-phenyl)-azetidin-2-one]
[1]
  IC50: 0.0468 µM

## C=C(C)C1C(=O)N(c2cc(OC)c(OC)c(OC)c2)C1c1ccc(OC)c(O)c1 (centres unmarked) [Compound 3, 4-(3-Hydroxy-4-methoxy-phenyl)-3-isopropenyl-1-(3,4,5-trimethoxy-phenyl)-azetidin-2-one]
[1]
  IC50: 0.019 µM

## COc1ccc(C2C(c3ccsc3)C(=O)N2c2cc(OC)c(OC)c(OC)c2)cc1 (centres unmarked) [Compound 21, 4-(4-Methoxy-phenyl)-3-thiophen-3-yl-1-(3,4,5-trimethoxy-phenyl)-azetidin-2-one]
other
  melting point: 130 °C
[1]
  IC50: 0.06 µM

## COc1ccc(C2C(C)C(=O)N2c2cc(OC)c(OC)c(OC)c2)cc1 (centres unmarked) [Compound 27, 4-(4-Methoxyphenyl)-3-methyl-1-(3,4,5-trimethoxyphenyl)-azetidin-2-one]
[1]
  IC50: 0.047 µM

## COc1ccc(C2C(c3ccccc3)C(=O)N2c2cc(OC)c(OC)c(OC)c2)cc1N (centres unmarked) [Compound 13, 4-(3-Amino-4-methoxy-phenyl)-3-phenyl-1-(3,4,5-trimethoxy-phenyl)-azetidin-2-one]
[1]
  IC50: 0.065 µM

## COc1ccc(C2CC(=O)N2c2cc(OC)c(OC)c(OC)c2)cc1 (centres unmarked) [Compound 26, 4-(4-Methoxyphenyl)-1-(3,4,5-trimethoxyphenyl)-azetidin-2-one]
[1]
  IC50: 0.039 µM

## COc1ccc(C2C(c3ccc(N)cc3)C(=O)N2c2cc(OC)c(OC)c(OC)c2)cc1 (centres unmarked) [Compound 9, 3-(4-Amino-phenyl)-4-(4-methoxy-phenyl)-1-(3,4,5-trimethoxyphenyl)-azetidin-2-one]
[1]
  IC50: 0.05 µM

## COc1ccc(C2C(c3ccc(F)cc3)C(=O)N2c2cc(OC)c(OC)c(OC)c2)cc1O (centres unmarked) [Compound 16, 3-(4-Fluoro-phenyl)-4-(3-hydroxy-4-methoxy-phenyl)-1-(3,4,5-trimethoxy-phenyl)-azetidin-2-one]
[1]
  IC50: 0.065 µM

## COc1ccc(C2C(c3ccsc3)C(=O)N2c2cc(OC)c(OC)c(OC)c2)cc1O (centres unmarked) [Compound 20, 4-(3-Hydroxy-4-methoxy-phenyl)-3-thiophen-3-yl-1-(3,4,5-trimethoxy-phenyl)-azetidin-2-one]
other
  melting point: 151 to 152 °C
[1]
  IC50: 0.01 µM

## COc1ccc(C2C(c3ccc(F)cc3)C(=O)N2c2cc(OC)c(OC)c(OC)c2)cc1N (centres unmarked) [Compound 17, 4-(3-Amino-4-methoxy-phenyl)-3-(4-fluoro-phenyl)-1-(3,4,5-trimethoxy-phenyl)-azetidin-2-one]
[1]
  IC50: 0.055 µM

## CC[C@]1(O)C[C@H]2CN(CCc3c([nH]c4ccccc34)[C@@](C(=O)OC)(c3cc4c(cc3OC)N(C=O)[C@H]3[C@@](O)(C(=O)OC)[C@H](OC(C)=O)[C@]5(CC)C=CCN6CC[C@]43[C@@H]65)C2)C1 [Vincristine, vincristine]
[2]
  IC50: 3.1 nM
[4]
  IC50: 610 nM
  RF: 277.3
[5]
  IC50: 2.2 nM
[3]
  IC50: 1600 nM
  RF: 516

## COc1ccc([C@H]2[C@H](c3ccccc3)C(=O)N2c2cc(OC)c(OC)c(OC)c2)cc1OP(=O)(O)O [Compound 29]
[6]; pH 4
  compound remaining after 24 hours: 100%
[6]; pH 7.4
  compound remaining after 24 hours: 100%
[6]; pH 9
  compound remaining after 24 hours: 100%

## COc1ccc(C2C(c3ccc(O)cc3)C(=O)N2c2cc(OC)c(OC)c(OC)c2)cc1N (centres unmarked) [Compound 15, 4-(3-Amino-4-methoxy-phenyl)-3-(4-hydroxy-phenyl)-1-(3,4,5-trimethoxy-phenyl)-azetidin-2-one]
other
  melting point: 177 °C
[1]
  IC50: 0.039 µM

## COc1ccc(C2[C@H](c3ccccc3)C(=O)N2c2cc(OC)c(OC)c(OC)c2)cc1OC(=O)c1ccccc1 (some centres unmarked) [Compound 31]
[6]; pH 4
  compound remaining after 24 hours: 61%
[6]; pH 7.4
  compound remaining after 24 hours: 35%
[6]; pH 9
  compound remaining after 24 hours: 76%

## COc1ccc(C2C(c3cccs3)C(=O)N2c2cc(OC)c(OC)c(OC)c2)cc1O (centres unmarked) [Compound 18, 4-(3-Hydroxy-4-methoxy-phenyl)-3-thiophen-2-yl-1-(3,4,5-trimethoxy-phenyl)-azetidin-2-one]
other
  melting point: 113 to 114 °C
[1]
  IC50: 0.007 µM

## COc1ccc(C2C(c3ccc(O)cc3)C(=O)N2c2cc(OC)c(OC)c(OC)c2)cc1 (centres unmarked) [Compound 10, 3-(4-Hydroxy-phenyl)-4-(4-methoxy-phenyl)-1-(3,4,5-trimethoxy-phenyl)-azetidin-2-one]
other
  melting point: 155 °C
[1]
  IC50: 0.059 µM

## COc1ccc(C2C(C)C(=O)N2c2cc(OC)c(OC)c(OC)c2)cc1O (centres unmarked) [Compound 28, 4-(3-Hydroxy-4-methoxyphenyl)-3-methyl-1-(3,4,5-trimethoxyphenyl)-azetidin-2-one]
[1]
  IC50: 0.01 µM

## COc1ccc(C2C(C(C)O)C(=O)N2c2cc(OC)c(OC)c(OC)c2)cc1O (centres unmarked) [Compound 6, 3-(1-Hydroxy-ethyl)-4-(3-hydroxy-4-methoxy-phenyl)-1-(3,4,5-trimethoxy-phenyl)-azetidin-2-one]
[1]
  IC50: 0.0376 µM

## COc1ccc(C2[C@H](c3ccccc3)C(=O)N2c2cc(OC)c(OC)c(OC)c2)cc1OC(C)=O (some centres unmarked) [Compound 30]
[6]; pH 4
  compound remaining after 24 hours: 60%
[6]; pH 7.4
  compound remaining after 24 hours: 42%
[6]; pH 9
  compound remaining after 24 hours: 54%

## COc1ccc(C2C(c3cccc(O)c3)C(=O)N2c2cc(OC)c(OC)c(OC)c2)cc1 (centres unmarked) [Compound 22, 3-(3-Hydroxy-phenyl)-4-(4-methoxy-phenyl)-1-(3,4,5-trimethoxy-phenyl)-azetidin-2-one]
[1]
  IC50: 0.0689 µM

## COc1ccc(C2C(c3ccc(F)cc3)C(=O)N2c2cc(OC)c(OC)c(OC)c2)cc1 (centres unmarked) [Compound 11, 3-(4-Fluoro-phenyl)-4-(4-methoxy-phenyl)-1-(3,4,5-trimethoxy-phenyl)-azetidin-2-one]
other
  melting point: 120 °C
[1]
  IC50: 0.042 µM
